“And” between values parts separate entries of the source, which are not always exact repeats. Equal values may be shown once. Read-outs that look alike come from different tables or passages of the source.
Key:
Pristionchus pacificus = Pristionchus pacificus motor disruption dose-response on solid media, 1 h; settings: for mean % any phene: any phenotype (coiled, jerky-Unc or paralyzed) at one hour, mean of three biological replicates
rat VAChT = molecular target: T1, rat VAChT (Rattus norvegicus, UniProt Q62666); assay: [3H]Vesamicol competitive radioligand binding, PC12 cells expressing ratVAChT; settings: [3H]Vesamicol binding
T1 construct: expressed in transfected cells; host or cells: rat PC12 (PC12 A123.7) cells, stably transfected; shared by Dr. Ali Roghani (Texas Tech University)
T1 sequence (Q62666 1-530): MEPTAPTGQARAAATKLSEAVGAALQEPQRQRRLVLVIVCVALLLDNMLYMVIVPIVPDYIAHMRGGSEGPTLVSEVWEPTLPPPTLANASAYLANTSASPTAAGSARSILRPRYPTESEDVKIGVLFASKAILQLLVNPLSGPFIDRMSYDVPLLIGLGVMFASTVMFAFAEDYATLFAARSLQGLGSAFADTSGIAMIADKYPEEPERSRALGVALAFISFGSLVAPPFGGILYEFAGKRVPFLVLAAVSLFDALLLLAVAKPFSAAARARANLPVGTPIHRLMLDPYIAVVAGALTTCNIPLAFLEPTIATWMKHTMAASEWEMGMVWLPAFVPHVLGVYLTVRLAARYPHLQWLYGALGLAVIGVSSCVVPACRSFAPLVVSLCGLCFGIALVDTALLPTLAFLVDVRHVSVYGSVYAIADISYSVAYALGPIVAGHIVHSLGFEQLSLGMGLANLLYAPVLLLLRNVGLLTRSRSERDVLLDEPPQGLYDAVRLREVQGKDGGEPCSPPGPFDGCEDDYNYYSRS

[1] = test system: Dirofilaria immitis microfilariae; assay: Dirofilaria immitis microfilariae immobility assay (DiroImager, 72 h); settings: Dirofilaria immitis microfilariae
How it was run: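 About 250 freshly purified microfilariae of the Missouri isolate per well in supplemented RPMI 1640, exposed to compound for 72 h. Motility scored by automated whole-plate optical imaging; medium with 1% DMSO as negative control.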

C. elegans = C. elegans motor phenotype scoring on solid media (Punc/jerky-unc, coiled, paralyzed), wild-type young adults; type: in vivo, Caenorhabditis elegans; settings: for atypical locomotion (number of animals) / coiled (number of animals) / no phene (number of animals) / paralyzed (number of animals) / any phene: mean % fraction of young adults exhibiting any phenotype (coiled, jerky-Unc or paralyzed): one hour; for atypical locomotion (number of animals) / coiled (number of animals) / no phene (number of animals) / paralyzed (number of animals): young adults, 20 animals per trial, single technical replicate; for any phene: mean % fraction of young adults exhibiting any phenotype (coiled, jerky-Unc or paralyzed): mean of three biological replicates
[2] = test system: Dirofilaria immitis L3/L4; assay: Dirofilaria immitis L3/L4 motility assay (DiroImager, 72 h); settings: Dirofilaria immitis L4
Haemonchus contortus = Haemonchus contortus L3 Migration Trap Assay (motility, 24 h exposure); settings: for efficacy: hc weybridge, motilityTrap24hNoWash, 24 h, single wells
[3] = conc 3.75, count of 20 animals per trial, one hour
[4] = conc 15, count of 20 animals per trial, one hour
[5] = conc 60, count of 20 animals per trial, one hour

Q: Which results are given for `CC1CCC(N2CCN(c3ccc(F)cc3)CC2)CC1` (stereo not drawn) [Nemacol-53]?
A: EC50 (Pristionchus pacificus; Pristionchus pacificus, 1 h, read-out: P. pacificus motor disruption EC50): 12.8 ± 1.2 µM; mean % any phene (Pristionchus pacificus; conc 3.75): 8.333%; rep 1 atypical locomotion (Pristionchus pacificus; [3]): 2 and 3; rep 1 coiled (Pristionchus pacificus; [3]): 0; rep 1 no phene (Pristionchus pacificus; [3]): 18 and 17; rep 1 paralyzed (Pristionchus pacificus; [3]): 0; rep 2 atypical locomotion (Pristionchus pacificus; [3]): 1; rep 2 coiled (Pristionchus pacificus; [3]): 0; rep 2 no phene (Pristionchus pacificus; [3]): 19; rep 2 paralyzed (Pristionchus pacificus; [3]): 0; rep 3 atypical locomotion (Pristionchus pacificus; [3]): 2 and 1; rep 3 coiled (Pristionchus pacificus; [3]): 0; rep 3 no phene (Pristionchus pacificus; [3]): 18 and 19; rep 3 paralyzed (Pristionchus pacificus; [3]): 0; mean % any phene (Pristionchus pacificus; conc 15): 57.5%; rep 1 atypical locomotion (Pristionchus pacificus; [4]): 12 and 13; rep 1 no phene (Pristionchus pacificus; [4]): 7; rep 1 paralyzed (Pristionchus pacificus; [4]): 0; rep 2 paralyzed (Pristionchus pacificus; [4]): 0; rep 3 coiled (Pristionchus pacificus; [4]): 2; mean % any phene (Pristionchus pacificus; conc 60): 100%; rep 1 atypical locomotion (Pristionchus pacificus; [5]): 0; rep 1 coiled (Pristionchus pacificus; [5]): 8 and 13; rep 1 no phene (Pristionchus pacificus; [5]): 0; rep 1 paralyzed (Pristionchus pacificus; [5]): 12 and 7; rep 2 coiled (Pristionchus pacificus; [5]): 9 and 14; rep 2 no phene (Pristionchus pacificus; [5]): 0; rep 2 paralyzed (Pristionchus pacificus; [5]): 10 and 6; rep 3 atypical locomotion (Pristionchus pacificus; [5]): 2 and 1; rep 3 coiled (Pristionchus pacificus; [5]): 7 and 12; rep 3 no phene (Pristionchus pacificus; [5]): 0; rep 3 paralyzed (Pristionchus pacificus; [5]): 11 and 7; Ki (rat VAChT; PC12, experiment 1, read-out: expt 1 Ki (M) vs. rat VAChT (PC12)): 5.54e-07 M; Ki (rat VAChT; PC12, experiment 2, read-out: expt 2 Ki (M) vs. rat VAChT (PC12)): 1.04e-06 M; Ki (rat VAChT; rat VAChT (PC12), mean of 2-3 experiments, read-out: mean Ki): 7.98e-07 M; % effect (motility), DIROIM MF ([1]; 0.016 µM): 0%; % effect (motility), DIROIM MF ([1]; 0.08 µM): 0%; % effect (motility), DIROIM MF ([1]; 0.4 µM): 0%; % effect (motility), DIROIM MF ([1]; 2 µM): 0%; % effect (motility), DIROIM MF ([1]; 10 µM): 0%; atypical locomotion (number of animals) (C. elegans; 3.75uM): 6 and 2 and 1 and 3 and 13 and 8; coiled (number of animals) (C. elegans; 3.75uM): 0; no phene (number of animals) (C. elegans; 3.75uM): 14 and 18 and 19 and 17 and 7 and 12; paralyzed (number of animals) (C. elegans; 3.75uM): 0; any phene: mean % fraction of young adults exhibiting any phenotype (coiled, jerky-Unc or paralyzed) (C. elegans; 3.75uM): 27.5%; atypical locomotion (number of animals) (C. elegans; 15uM): 3 and 9 and 11 and 13 and 18 and 17; coiled (number of animals) (C. elegans; 15uM): 0 and 1 and 4 and 3 and 2; no phene (number of animals) (C. elegans; 15uM): 4 and 2 and 0 and 3; paralyzed (number of animals) (C. elegans; 15uM): 13 and 8 and 5 and 4 and 0; any phene: mean % fraction of young adults exhibiting any phenotype (coiled, jerky-Unc or paralyzed) (C. elegans; 15uM): 92.5%; atypical locomotion (number of animals) (C. elegans; 60uM): 0 and 2; coiled (number of animals) (C. elegans; 60uM): 13 and 15 and 9 and 12 and 16; no phene (number of animals) (C. elegans; 60uM): 0; paralyzed (number of animals) (C. elegans; 60uM): 7 and 5 and 9 and 6 and 2; EC50 (C. elegans; Caenorhabditis elegans, any motor phenotype after 1 h on solid media, ± 95% CI, read-out: C. elegans - motor disruption EC50): 5.5 ± 1.6 µM; % effect (motility), DIROIM L4 ([2]; 10 µM): 5%; % effect (motility), DIROIM L4 ([2]; 50 µM): 20%; effect on Ivermectin's ability to paralyze H. contortus (Haemonchus contortus; EC30 concentration of Nemacol-53 (26.4 µM), P = 0.002): significantly enhance; EC30 (Haemonchus contortus; H. contortus L3 motility): 26 µM; EC50 (Haemonchus contortus; Haemonchus contortus): 40.6 µM

Q: `CC1CCC(N2CCN(c3ccc(F)cc3)CC2)CC1` (stereo not drawn) [Nemacol_53] was tested. Which efficacy (Haemonchus contortus; dose 0.00488281 µM) did it give?
A: 0

Q: What about the efficacy (Haemonchus contortus; dose 0.0195312 µM) of the same molecule?
A: 0

Q: What about the efficacy (Haemonchus contortus; dose 80 µM) of the same molecule?
A: 90.3789 and 92.5148 and 88.1185

Q: `c1ccc(N2CCN(CC3CCCC3)CC2)cc1` [Nemacol_62] was tested. Which efficacy (Haemonchus contortus; dose 5 µM) did it give?
A: 0

Q: What about the efficacy (Haemonchus contortus; dose 20 µM) of the same molecule?
A: 0

Q: And the efficacy (Haemonchus contortus; dose 80 µM)?
A: 0

Source: paper PMC10066365, “Nemacol is a small molecule inhibitor of C. elegans vesicular acetylcholine transporter with anthelmintic potential” (Nature Communications, 2023)
